Measurements: publication PMC12040169 (PLOS Biology, 2025)

experiment: in vitro; conditions: human, hela cells, % viability

Structure (SMILES) | viability at 28.5 h, 10 µM
COCCN1CCN(c2cncc(-c3ccc(O)cc3)n2)CC1 [CBK126951T] | 93.6%
Cc1ccc(S(=O)(=O)N(C)c2c(C)ccc(S(=O)(=O)N(C)CCO)c2C)cc1 [CBK264970] | 85.5%
O=C(C1CC1)N1C[C@H]2CCCN(S(=O)(=O)c3cccs3)[C@H]2C1 [CBK282255] | 105%
Cc1cc(C)nc(N/N=C/c2cn(-c3ccccc3)nc2-c2ccc([N+](=O)[O-])cc2)n1 [CBK262864] | 90.5%
CN1C[C@@H](NC(=O)COc2ccccc2)C[C@H]1c1nc(-c2ccncc2)no1 [CBK288855] | 90.4%
Cc1ccc(S(=O)(=O)NCC23C=CC(O2)C2C(=O)N(Cc4ccccc4)C(=O)C23)cc1 (stereo not drawn) [CBK261170] | 107%
Cc1cc2c(o1)c1cnn(CC(=O)N3CCCC3)c(=O)c1n2C(C)C [CBK284232] | 89%
Oc1ccc(NCc2ccc(OCc3cccs3)cc2)cc1 [CBK266586] | 89%
O=C(O)CC1S/C(=N/N=C/c2ccc(-c3ccc(Cl)cc3)o2)NC1=O (stereo not drawn) [CBK264595] | 125%
O=C(O)CCC(=O)N[C@H]1CCN2C(=O)c3cc(-c4ccc(Cl)cc4)ccc3NC(=O)[C@H]12 [CBK289275] | 115%
Fc1ccc(-c2nccnc2OCc2ccccn2)cc1 [CBK106894] | 99.6%
COC(=O)N1CC2(CCCCC2NCc2c[nH]c(C)n2)c2ccccc21 (stereo not drawn) [CBK083547T] | 108%
Cc1ccc(SCC(=O)Nc2cc([N+](=O)[O-])ccc2O)cc1 [CBK268655] | 123%
COC(=O)c1ccc(NC(=O)CN(c2ccc(F)c(Cl)c2)S(C)(=O)=O)cc1 [CBK267657] | 88.3%
Cn1cc(CCNC(=O)N2CCN(Cc3ccsc3)CC2)cn1 [CBK305692] | 88.6%
C(=C\c1nccnc1OCc1ccccn1)/c1ccccc1 [CBK106874] | 105%
CN1CCN(c2snnc2CO)CC1 [CBK025626] | 99.5%
CC(=O)Nc1cccc(CN(CCCO)c2ccccc2)c1 [CBK304833] | 97.1%

Structure (SMILES) | viability at 28.5 h, 10 µM
Cc1c(C(=O)NCCCCn2ccnc2)oc2c(C)cccc12 [CBK283315] | 99.9%
O=C(N[C@H]1CCN2C(=O)c3cc(-c4ccsc4)ccc3NC(=O)[C@@H]2C1)c1cccs1 [CBK289563] | 103%
Cc1cc(CC(=O)N2CCN(c3ncccn3)CC2)on1 [CBK144507] | 90%
CN(C)C(=O)CN1CCN(CCc2ccccc2)CC1 [CBK126455] | 98.8%
O=C(c1ccc(OC(F)F)cc1)N1CCCCC1 [CBK074223] | 86.7%
CCOC(=O)CSc1nc2ccc(I)cc2c(=O)n1Cc1ccccc1 [CBK266602] | 107%
CCCNC(=O)Cn1cnc2sc(C)c(C)c2c1=O [CBK305863] | 88.8%
COc1ccc(S(=O)(=O)N(C)CC(=O)N2CCN(Cc3ccccc3)CC2)cc1C [CBK268221] | 99.6%
CN1CCCc2ccc(S(=O)(=O)NCCc3cn4ccccc4n3)cc21 [CBK306170] | 82.8%
Cc1ccc2c(CC(=O)N3CCNCC3c3cnn(C)c3)coc2c1C (stereo not drawn) [CBK304271C] | 87%
O=C(Cc1cn2ccsc2n1)NCCCN1CCCc2ccccc21 [CBK306611] | 101%
Cc1cc(COC(=O)N2CCSCC2)cc(C)n1 [CBK200153] | 107%
CC(NC(=O)c1ncoc1-c1ccccc1F)c1ccccn1 (stereo not drawn) [CBK282402] | 91.4%
CCc1nn(CC(=O)N(CC)CC)c(=O)c2cc3ccsc3n12 [CBK284132] | 88.2%
COc1cc([N+](=O)[O-])ccc1NC(=O)NCc1ccc(C(=O)O)cc1 [CBK267092] | 87.1%
O=C1C2C3C=CC(C3)C2C(=O)N1CCNCCO (stereo not drawn) [CBK264414] | 93%
Cc1ccc(OC(C)C(=O)Nc2ccc(S(=O)(=O)Nc3cc(C)on3)cc2)cc1 (stereo not drawn) [CBK268757] | 89.6%
Cc1ccccc1NC(=O)c1ccc(Br)o1 [CBK107152] | 88.2%
